Test results: EP0025288A1, “Derivatives of monic acid, processes for their preparation, compositions containing them and their preparation” (priority 1979, dated 1981)
≈ marks a conversion by molar mass, not a printed value.

How the values were obtained:
S typhimurium S18 = experiment: MIC, veterinary bacteria; type: cell-based; settings: veterinary bacteria (Table 2), read-out: MIC
E coli E1 = experiment: MIC, veterinary bacteria; type: cell-based; settings: veterinary bacteria (Table 2), read-out: MIC
M fermentans MWKL4 = experiment: MIC, anti-mycoplasmal, Friis' broth microtiter method; type: cell-based; settings: read-out: in vitro MIC, BROTH
Staph aureus Oxford = experiment: MIC, veterinary bacteria; type: cell-based; settings: Staphylococcus aureus, veterinary bacteria (Table 2), read-out: MIC
[1] = test system: M suipneumoniae J2206/183b; experiment: MIC, anti-mycoplasmal, Friis' broth microtiter method; type: cell-based; settings: read-out: in vitro MIC, BROTH
M pneumoniae 427a = experiment: as above; type: cell-based; settings: read-out: in vitro MIC, BROTH
M pneumoniae ATCC 15492 = experiment: as above; type: cell-based; settings: read-out: in vitro MIC, BROTH
[2] = test system: Corynebacterium pyogenes CY1; experiment: MIC, veterinary bacteria; type: cell-based; settings: veterinary bacteria (Table 2), read-out: MIC
S dublin S7 = experiment: MIC, veterinary bacteria; type: cell-based; settings: veterinary bacteria (Table 2), read-out: MIC
Past multocida PA1 = experiment: MIC, veterinary bacteria; type: cell-based; settings: veterinary bacteria (Table 2), read-out: MIC
[3] = test system: Staph aureus B4 (pen resis); experiment: MIC, veterinary bacteria; type: cell-based; settings: Staphylococcus aureus, veterinary bacteria (Table 2), read-out: MIC
M suipneumoniae Str 11 = experiment: MIC, anti-mycoplasmal, Friis' broth microtiter method; type: cell-based; settings: read-out: in vitro MIC, BROTH
[4] = test system: Staph aureus 152 (pen sens); experiment: MIC, veterinary bacteria; type: cell-based; settings: Staphylococcus aureus, veterinary bacteria (Table 2), read-out: MIC
Past Haemolytica PA5 = experiment: MIC, veterinary bacteria; type: cell-based; settings: veterinary bacteria (Table 2), read-out: MIC
E coli NCTC 10418 = experiment: MIC, veterinary bacteria; type: cell-based; settings: veterinary bacteria (Table 2), read-out: MIC
M pulmonis JB = experiment: MIC, anti-mycoplasmal, Friis' broth microtiter method; type: cell-based; settings: read-out: in vitro MIC, BROTH
[5] = test system: Strep suis (group D) SPS11; experiment: MIC, veterinary bacteria; type: cell-based; settings: veterinary bacteria (Table 2), read-out: MIC
M dispar H225 = experiment: MIC, anti-mycoplasmal, Friis' broth microtiter method; type: cell-based; settings: read-out: in vitro MIC, BROTH
[6] = test system: Erysipelothrix rhusiopathiae NCTC 8163; experiment: MIC, veterinary bacteria; type: cell-based; settings: NCTC8163, veterinary bacteria (Table 2), read-out: MIC
Bord bronchiseptica BO8 = experiment: MIC, veterinary bacteria; type: cell-based; settings: veterinary bacteria (Table 2), read-out: MIC
Strep uberis SPU1 = experiment: MIC, veterinary bacteria; type: cell-based; settings: veterinary bacteria (Table 2), read-out: MIC
[7] = Mean serum concentration in neonatal piglets after intramuscular or oral administration; type: in vivo; settings: pig, 50 mg/kg; for concentration at 1 h: 60'
Method: e) Mean serum concentration in neonatal piglets of Examples 4 and 5 after intramuscular or oral administration at 50 mg/kg
Blood levels were assessed in neonatal piglets (2 to 4 animals per group and man bodyweights about 2 kg). The dose was 50 mg/kg (dose solution = 25 mg/ml in 25% ethanol). Doses were given by intramuscular injection and orally by stomach tube. Piglets were bled at intervals up to 8 and at 24 hours, and serum assayed microbiologically (B. subtilis ATCC 6633).

Bord bronchisptica BO9 = experiment: MIC, veterinary bacteria; type: cell-based; settings: veterinary bacteria (Table 2), read-out: MIC
Strep dysgalaciae SPD1 = experiment: MIC, veterinary bacteria; type: cell-based; settings: veterinary bacteria (Table 2), read-out: MIC
M dispar NCTC 10125 = experiment: MIC, anti-mycoplasmal, Friis' broth microtiter method; type: cell-based; settings: read-out: in vitro MIC, BROTH
Strep agalactiae SPA1 = experiment: MIC, veterinary bacteria; type: cell-based; settings: veterinary bacteria (Table 2), read-out: MIC
Past multocida PA2 = experiment: MIC, veterinary bacteria; type: cell-based; settings: veterinary bacteria (Table 2), read-out: MIC
[8] = Serum binding by ultrafiltration; type: in vitro ADME, pig; settings: pig, serum, compounds at 8 mcg/ml, microbiological assay (B. subtilis ATCC 6633), read-out: % bound to pig serum (converted)
Method: Serum binding was assessed by ultrafiltration of procine serum containing compounds at 8 mcg/ml, and through an Amicon CF50A ultrafiltration cone. Separation of ultrafiltrate was achieved by centrifugation.

MIC (S typhimurium S18): > 80 µg/mL
MIC (E coli E1): > 80 µg/mL
MIC (M fermentans MWKL4): < 0.02 µg/mL
MIC (Staph aureus Oxford): 0.156 µg/mL (≈ 0.314 µM)
MIC [1]: 0.078 µg/mL (≈ 0.157 µM)
MIC (M pneumoniae 427a): 0.312 µg/mL (≈ 0.628 µM)
MIC (M pneumoniae ATCC 15492): 0.312 µg/mL (≈ 0.628 µM)
MIC [2]: > 80 µg/mL
MIC (S dublin S7): > 80 µg/mL
MIC (Past multocida PA1): 0.312 µg/mL (≈ 0.628 µM)
MIC [3]: 0.156 µg/mL (≈ 0.314 µM)
MIC (M suipneumoniae Str 11): 0.078 µg/mL (≈ 0.157 µM)
MIC [4]: 0.156 µg/mL (≈ 0.314 µM)
MIC (E coli NCTC 10418): > 80 µg/mL
MIC (M pulmonis JB): < 0.02 µg/mL
MIC [5]: 2.5 µg/mL (≈ 5.03 µM)
MIC (M dispar H225): < 0.02 µg/mL
MIC [6]: 20 µg/mL (≈ 40.3 µM)
MIC (Bord bronchiseptica BO8): 40 µg/mL (≈ 80.5 µM)
MIC (Strep uberis SPU1): < 0.019 µg/mL
concentration at 10 min ([7]; im): 9000 ng/mL
concentration at 20 min ([7]; im): 8900 ng/mL
concentration at 40 min ([7]; im): 10000 ng/mL
concentration at 1 h ([7]; im): 8500 ng/mL
concentration at 2 h ([7]; im): 3300 ng/mL
concentration at 3 h ([7]; im): 1900 ng/mL
concentration at 4 h ([7]; im): 1600 ng/mL
concentration at 6 h ([7]; im): 830 ng/mL
concentration at 8 h ([7]; im): 710 ng/mL
concentration at 24 h ([7]; im): < 120 ng/mL
concentration at 10 min ([7]; po): 5300 ng/mL
concentration at 20 min ([7]; po): 5500 ng/mL
concentration at 40 min ([7]; po): 6500 ng/mL
concentration at 1 h ([7]; po): 5700 ng/mL
concentration at 2 h ([7]; po): 2400 ng/mL
concentration at 3 h ([7]; po): 1400 ng/mL
concentration at 4 h ([7]; po): 1400 ng/mL
concentration at 6 h ([7]; po): 770 ng/mL
concentration at 8 h ([7]; po): 740 ng/mL
concentration at 24 h ([7]; po): 150 ng/mL
MIC (Bord bronchisptica BO9): 5 µg/mL (≈ 10.1 µM)
MIC (Strep dysgalaciae SPD1): 0.156 µg/mL (≈ 0.314 µM)
MIC (M dispar NCTC 10125): 0.039 µg/mL (≈ 0.0785 µM)
MIC (Strep agalactiae SPA1): 0.312 µg/mL (≈ 0.628 µM)
MIC (Past multocida PA2): 0.07 µg/mL (≈ 0.141 µM)
fraction unbound [8]: 0.012
SMILES: CC(=CC(=O)OCCCC(=O)c1cccs1)CC1OCC(CC2OC2C(C)C(C)O)C(O)C1O (centres unmarked) [Example 4, 4(1-Thienyl-2-ylbutan-1-onyl) monate A]
MIC (Past Haemolytica PA5): 5 µg/mL (≈ 10.1 µM)
